Measurements taken from paper PMC3353181, “A gallotannin-rich fraction from Caesalpinia spinosa (Molina) Kuntze displays cytotoxic activity and raises sensitivity to doxorubicin in a leukemia cell line” (BMC Complementary and Alternative Medicine, 2012).

How the values were obtained:
[1] = test system: melanoma cells (RPMI-7951); set-up: method as in PMID 1431932; conditions: cited from earlier work
K562 = experiment: P2Et adjuvant activity (MTT), K562; type: cell-based, human; conditions: sub-optimal tested concentrations
Method: P2Et fraction adjuvant activity was assessed using K562 and MCF7 cells in combination with the well-known cancer treatment drugs doxorubicin, vincristine, taxol and camptothecin. Cell viability was evaluated by means of the MTT assay. […] Results are expressed as cell viability percentage relative to the control (100 × Treatment OD/Negative control OD).
K562 (A) or MCF7 (B) cells were treated with the P2Et fraction or ethanol (negative control) for 6 h, washed and treated with doxorubicin (Dx), vincristine (Vt), camptothecin (Ct) or taxol (Tx) at the concentrations shown over a 48 h period. Cell cytotoxicity was estimated using the MTT assay. Data represent three independent experiments. *** (p < 0.001).

gingival fibroblasts = experiment: MTT cytotoxicity assay, gingival fibroblasts; type: cell-based; conditions: Homo sapiens, Fibroblast, normal gingival fibroblasts, concentration ± SE
Text: (§1) The cell lines used as cancer cells were K562, a human erythroleukemia and MCF7, a human breast adenocarcinoma, from the American Type Culture Collection (ATCC); and the cell lines used as normal cells were human peripheral blood mononuclear cells (PBMC) and human fibroblasts obtained from normal healthy donors after informed consent was given. This project was approved by the ethics committee (founded in 2002) of the Science Faculty at a meeting on August 21, 2007. The culture conditions under which the cell lines were maintained have already been reported.
(§2) The cytotoxic effects of the fractions and conventional chemotherapeutic drugs (doxorubicin, etoposide, vincristine and taxol) were evaluated using normal and tumor cells by means of trypan blue and the methylthiazol tetrazolium (MTT) assay, as previously reported. The P2Et fraction was dissolve in ethanol and the corresponding vehicle was used as a negative control.
(§3) Figure 2 Induction of morphological changes and cytotoxicity in K562 cells by C. spinosa fractions without affecting normal human cells. […] Morphological changes were evaluated by direct observation using a light microscope at a magnification of 40X (B: 1. Ethanol; 2. S2Et; 3. P2Et; and 4. Etoposide). […]
(§4) Additionally, the cytotoxic activity of C. spinosa fractions was evaluated using gingival fibroblasts from the oral mucosa or normal human mononuclear cells. […]

PBMC = experiment: MTT cytotoxicity assay, PBMC; type: cell-based; conditions: Homo sapiens, normal PBMC, concentration ± SE
Text: as §1, §2, §3, §4

HL-60 cell line = test system: HL-60 cell line; set-up: method as in PMID 10554885; conditions: cited from earlier work

O=C(O[C@H]1[C@H](O)C[C@](O)(C(=O)O)C[C@H]1OC(=O)c1cc(O)c(O)c(O)c1)c1cc(O)c(O)c(O)c1 [4,5-di-O-galloylquinic acid]
Cytotoxicity against melanoma cells [1]: moderate cytotoxicity

COc1cccc2c1C(=O)c1c(O)c3c(c(O)c1C2=O)C[C@@](O)(C(=O)CO)C[C@@H]3O[C@H]1C[C@H](N)[C@H](O)[C@H](C)O1 [Doxorubicin]
Effect on cell viability, used separately (K562): slight effect

COc1cc([C@@H]2c3cc4c(cc3[C@@H](O[C@@H]3O[C@@H]5CO[C@@H](C)O[C@H]5[C@H](O)[C@H]3O)[C@H]3COC(=O)[C@H]23)OCO4)cc(OC)c1O [Etoposide]
IC50 (gingival fibroblasts): > 200 µg/mL | IC50 (PBMC): > 200 µg/mL

O=C(OC[C@H]1O[C@@H](OC(=O)c2cc(O)c(O)c(O)c2)[C@H](OC(=O)c2cc(O)c(O)c(O)c2)[C@@H](OC(=O)c2cc(O)c(O)c(O)c2)[C@@H]1OC(=O)c1cc(O)c(O)c(O)c1)c1cc(O)c(O)c(O)c1 [PGG, 1,2,3,4,6-penta-O-galloyl-β-D-glucose]
Induction of apoptosis (HL-60 cell line): able to induce caspase-mediated apoptosis
